Laboratory results taken from US4137224A (Schering Corporation, priority 1977, dated 1979).
Values after ≈ are worked out from the molar mass of the structure shown. Like-named read-outs stand apart in the source and are kept apart here. *1 amine or outer side, *2 acyl side, *3 side chain or, on linkers, in order; H or OH if unused. Where a SMILES comes first, the peptide text is derived from it. Bridges are numbered along the chain shown (N, C = ends). [ ]: non-standard residue; d: D form. The star is where a group is joined. NMeT = CN[CH](C(=O)O)[CH](C)O; X1 = CCCCCCCCCCCC(O)CC(=O)*; X2 = CC=C(N[*:1])C(=O)[*:2]; X3 = OCC1OC(*)C(O)C(O)C1O

Columns and labels:
Aeromonas sp. W-10 = experiment: Resistance of Aeromonas sp. W-10 to antibacterial agents; type: cell-based; conditions: in words
Method: The growth and physiological characteristics of Aeromonas sp. All observations were made after seven (7) days of incubation at 28° C. Color designations are assigned according to the classification in the Color Harmony Manual (1958), Container Corporation of America. The designates G, S, C and R used herein stand for growth, surface, color and reaction, respectively.

[1] = Toxicity (LD50), oral or subcutaneous administration; conditions: in vivo
[2] = tested on: Saccharomyces cerevisiae ATCC 9763; experiment: Agar diffusion assay against Antibiotic 20562 standard; type: cell-based
Method: The broths are assayed against a standard solution of Antibiotic 20562 having an assigned potency of 1000 mcg/mg. The standard solution is diluted with 10% potassium phosphate buffer (pH 6.0) to make solutions having antibiotic concentrations of 3.2, 4.0, 5.0, 6.25 and 7.8 mcg/ml. The assay is performed substantially as set forth in the Federal Register, Title 21, Chapter 436.105.

[3] = tested on: Trichophyton mentagrophytes; experiment: In vivo activity against Trichophyton mentagrophytes infection in guinea pigs; conditions: 1% in polyethylene glycol 400, topical, twice daily for ten days
Method: The skin of fifteen guinea pigs is abraided and infected with a standard culture of Trichophyton mentagrophytes. The infected animals are then separated into three groups containing five animals each. Suspensions containing 1% of the respective antibiotics in polyethylene glycol 400 are prepared. Two of the three groups are treated topically, twice daily for ten days commencing three days after infection. The third group (controls) remained untreated throughout the test. All of the animals are tested for infection by culture and observed for skin lesions for a total of 21 days.

Candida albicans [4] = experiment: In vivo activity in mice infected intravenously with Candida albicans; design: species or system male CFl mice; Candida albicans; conditions: 48 hours after infection, read-out: PD50
Method: PD50 values were determined 48 hours after infection and are as follows: […]

Candida albicans [5] = experiment: In vitro MIC against strains of Candida albicans in Sabouraud dextrose broth; type: cell-based
Method: Antibiotic 20562 was tested in vitro in Sabourraud dextrose broth against strains of Candida albicans, the Minimum Inhibitory Concentration (MIC) being set forth in Table IV below: […]

[6] = tested on: Candida albicans (Wisconsin strain); experiment: Topical in vivo activity against Candida albicans intravaginal infection in hamsters; design: species or system female hamsters; Candida albicans; conditions: three day treatment
Method: Using a culture of Candida albicans (Wisconsin strain), in Sabourrauds dextrose broth, infect intravaginally, five groups of six female hamsters. Forty-eight and seventy-two hours after infection, make smears of the infected animals and culture the smears. […] (96 hours after infection), make additional smears, culture and commence treatment. One group of six animals (controls) receives no treatment and, therefore, remains infected throughout the test. The remaining four groups of animals are treated with Antibiotic 20562, as 1%, 5%, 10% and 15% suspensions, respectively, the vehicle for suspension being administered on a cotton swab. At the end of the three day treatment the 1%, 5% and 10% groups are 60% cured, the 15% group is completely (100%) cured.

[7] = Example 2 step B, after chromatography
[8] = Example 3 steps C and D, after chromatography
[9] = isolated antibiotics, crystalline from methanol
[10] = sc, single subcutaneous dose one hour after infection
[11] = single oral dose one hour after infection

SMILES | LD50 ([1]; po) [mg/kg] | LD50 ([1]; sc) [mg/kg] | assay (potency) [2, 7] [µg/mg] | assay (potency) [2, 8] [µg/mg] | assay (potency) [2, 9] | Days to become negative, Culture [3] [days] | Days to become negative, Lesion [3] [days] | ED50 (Candida albicans [4]; [10]) [mg/kg] | ED50 (Candida albicans [4]; [11]) [mg/kg] | also measured
CC(C)c1nc2nc(N)nc(N)c2nc1C(C)C [0/129, 2,4-diamino-6,7-diisopropylpteridine] |  |  |  |  |  |  |  |  |  | sensitivity of Aeromonas sp. W-10 to the vibriostatic compound (Aeromonas sp. W-10): insensitive
CC=C(NC(=O)CC(O)CCCCCCCCCCC)C(=O)NC1C(=O)NC(C(C)O)C(=O)NC(Cc2ccc(O)cc2)C(=O)NC(=CC)C(=O)NC(CCC(N)=O)C(=O)NCC(=O)N(C)C(C(C)O)C(=O)NC(Cc2cnc[nH]2)C(=O)OC1C (centres unmarked) [Antibiotic 20561] (X1-[X2]TTY[X2]QG[NMeT]H; ester 2-C; configuration not given here) | 1000 | > 1000 | 800 | 800 | about 800 mcg/mg | 4.8 | 6.3 | 4 | 25 | 
CC=C(NC(=O)CC(O)CCCCCCCCCCC)C(=O)NC1C(=O)NC(C(C)O)C(=O)NC(Cc2ccc(O)cc2)C(=O)NC(=CC)C(=O)NC(CCC(N)=O)C(=O)NCC(=O)N(C)C(C(C)OC2OC(CO)C(O)C(O)C2O)C(=O)NC(Cc2cnc[nH]2)C(=O)OC1C (centres unmarked) [Antibiotic 20562] (X1-[X2]TTY[X2]QG[NMeT](X3)H; ester 2-C; configuration not given here) | 800 | 600 | 800 | 1000 | about 1000 mcg/mg | 5.8 | 9.0 | 4 | 25 | MIC (Candida albicans [5]; Candida albicans, strain Burke, read-out: MIC): 0.075 µg/mL (≈ 0.0552 µM); MIC (Candida albicans [5]; strain 29): 0.075 µg/mL (≈ 0.0552 µM); MIC (Candida albicans [5]; strain Bevan): 0.075 µg/mL (≈ 0.0552 µM); MIC (Candida albicans [5]; strain Collins): 0.075 µg/mL (≈ 0.0552 µM); MIC (Candida albicans [5]; strain Fix): 0.075 µg/mL (≈ 0.0552 µM); MIC (Candida albicans [5]; strain Lush): 0.075 µg/mL (≈ 0.0552 µM); MIC (Candida albicans [5]; strain Merkel): 0.075 µg/mL (≈ 0.0552 µM); MIC (Candida albicans [5]; strain Newcomb): 0.075 µg/mL (≈ 0.0552 µM); MIC (Candida albicans [5]; strain No. 1): 0.075 µg/mL (≈ 0.0552 µM); MIC (Candida albicans [5]; strain Raub): 0.075 µg/mL (≈ 0.0552 µM); MIC (Candida albicans [5]; strain Sperk): 0.075 µg/mL (≈ 0.0552 µM); MIC (Candida albicans [5]; strain Wisconsin): 0.075 µg/mL (≈ 0.0552 µM); cured ([6]; 1% suspension): 60%; cured ([6]; 5% suspension): 60%; cured ([6]; 10% suspension): 60%; cured ([6]; 15% suspension): 100%
